{"source": "patent US20200345662A1", "about": "“MUSCULAR ATROPHY-INDUCING AGENT USING HYPOMETABOLISM-INDUCING SUBSTANCE T1AM, AND USE THEREOF IN TREATING MUSCULAR HYPERTROPHY” (UNIVERSITY INDUSTRY FOUNDATION, YONSEI […] CAMPUS, priority 2015, published 2020)", "key": {"AMPK": {"system": "AMPK", "assay": "Immunoblotting analysis of p-AMPK and AMPK in C2C12 myotubes", "type": "cell-based", "conditions": "T1AM-treated group vs control", "description": "(§1) C2C12 myoblasts were purchased from American Type Culture Collection (Rockville, Md., USA) and cultured in a DMEM medium containing 4,500 mg/L glucose supplemented with 10% fetal bovine serum (Hyclone, Logan, Utah, USA) and 1% antibiotics/antimycotics Gibco, Burlington, Ontario, Canada). The myoblasts were stored under conditions of 37° C. and 5% CO2. The myoblasts were grown on a 6-well culture plate for immunoblot analysis and measurement of diameters of myotubes. The myoblasts were maintained in each well for 5 days by replacing the medium with a differentiation medium (DMEM containing 2% horse serum and 1% antibiotics/antimycotics) at about 80% confluent state and induced to be differentiated into myotubes. The medium was replaced with a new medium every two days.\n(§2) The cells were obtained with a RIPA buffer, degraded by repeated suction through a 21 gauge needle, and the transferred to a 1.5 mL microtube. A sample was cultured on ice for 5 minutes and centrifuged at 13,000 rpm at 4° C. for 10 minutes. A supernatant was obtained with whole-cell soluble lysates and the protein concentration was determined through Bradford assay. To detect AMPK, phospho-AMPK (p-AMPK), FoxO1, p-FoxO1, FoxO3, p-FoxO3, Akt1, p-Akt1, S6K, p-S6K, MuRF1, MAFbx, HSP90, HSP72, HSP60, HSP27, αB-crystallin, and GAPDH, a total of 30 μg of proteins was electrophoresed on 8 to 10% SDS-PAGE.\n(§3) The proteins were electrophoretically transferred from the gel to a nitrocellulose membrane. The membrane reacted with a blocking buffer (1X TBS, 0.5% Tween-20 with 5% w/v nonfat dry milk) for 1 hour at room temperature and then washed with 10 mL TBST three times every 10 minutes. Thereafter, the membranes reacted with a primary antibody diluted appropriately with 10 mL TBST (1:500 to 1:10,000) overnight at 4° C. […] An immunocomplex was detected by the ECL system (GE Healthcare, Fairfield, Conn., USA) and the obtained bands were quantified by ImageJ 1.47t software (NIH, MD, USA). […]"}, "FoxO1": {"system": "FoxO1", "assay": "Immunoblotting analysis of p-FoxO1 and FoxO1 in C2C12 myotubes", "type": "cell-based", "conditions": "T1AM-treated group vs control", "description": "as §1, §2\n(§4) The proteins were electrophoretically transferred from the gel to a nitrocellulose membrane. The membrane reacted with a blocking buffer (1X TBS, 0.5% Tween-20 with 5% w/v nonfat dry milk) for 1 hour at room temperature and then washed with 10 mL TBST three times every 10 minutes. […] An immunocomplex was detected by the ECL system (GE Healthcare, Fairfield, Conn., USA) and the obtained bands were quantified by ImageJ 1.47t software (NIH, MD, USA). […]\n(§5) The cells on each 6-well plate were washed three times with 1× PBS and fixed with 4% paraformaldehyde for 30 minutes at room temperature. […] Fluorescent-labeled cells were detected with a Carl Zeiss LSM750 confocal microscope (Jena, Germany)."}, "26S proteasome": {"system": "26S proteasome", "assay": "Chymotrypsin-like activity of 26S proteasome, cell-based luminescence assay", "conditions": "C2C12 myotubes, T1AM-treated group vs control", "description": "Two groups of myotubes were trypsinized and then washed with a fresh differentiation medium. Among three determinants of proteasome activities (trypsin-, chemotrypsin- and caspase-like activities), the chemotrypsin-like activity is regarded as representative of the protease capacity of the proteasome. The chemotrypsin-like activity was determined according to the manufacturer's protocol using a Promega Proteasome-Glo cell-based luminescence assay kit (Promega, Madison, Wis., USA) by approximately 7,500 cells measured by a cell counter (Biorad, Hercules, Calif., USA) in 50 μl of the differentiation medium. To confirm the specificity of the analysis, a partial sample containing the same number of cells was pretreated with a proteasome inhibitor, epoxomicin, at a concentration of 10 μM for 30 minutes. The chemotrypsin-like activity was measured by the same process and the result was used as a background signal for analysis. The luminescence was measured with a GloMax 20/20 Luminometer (Promega)."}, "HSP60": {"system": "HSP60", "assay": "Immunoblotting analysis of HSP60 in C2C12 myotubes", "type": "cell-based", "conditions": "T1AM-treated group vs control", "description": "as §1\n(§6) The cells were obtained with a RIPA buffer, degraded by repeated suction through a 21 gauge needle, and the transferred to a 1.5 mL microtube. A sample was cultured on ice for 5 minutes and centrifuged at 13,000 rpm at 4° C. for 10 minutes. A supernatant was obtained with whole-cell soluble lysates and the protein concentration was determined through Bradford assay. […]\n(§7) The proteins were electrophoretically transferred from the gel to a nitrocellulose membrane. […] An immunocomplex was detected by the ECL system (GE Healthcare, Fairfield, Conn., USA) and the obtained bands were quantified by ImageJ 1.47t software (NIH, MD, USA). […]"}, "FoxO3": {"system": "FoxO3", "assay": "Immunoblotting analysis of p-FoxO3 and FoxO3 in C2C12 myotubes", "type": "cell-based", "conditions": "T1AM-treated group vs control", "description": "as §1, §2, §4, §5"}, "[1]": {"system": "heat shock protein 72 (HSP72)", "assay": "Immunoblotting analysis of HSP72 in C2C12 myotubes", "type": "cell-based", "conditions": "T1AM-treated group vs control", "description": "as §1, §6, §7"}, "MAFbx": {"system": "MAFbx", "assay": "Immunoblotting analysis of MAFbx in C2C12 myotubes", "type": "cell-based", "conditions": "T1AM treatment vs control", "description": "as §1, §6, §7"}, "MuRF1": {"system": "MuRF1", "assay": "Immunoblotting analysis of MuRF1 in C2C12 myotubes", "type": "cell-based", "conditions": "T1AM-treated group vs control", "description": "as §1, §6, §7"}, "αB-crystallin": {"system": "αB-crystallin", "assay": "Immunoblotting analysis of αB-crystallin in C2C12 myotubes", "type": "cell-based", "conditions": "T1AM-treated group vs control", "description": "as §1, §6, §7"}, "Akt1": {"system": "Akt1", "assay": "Immunoblotting analysis of p-Akt1 and Akt1 in C2C12 myotubes", "type": "cell-based", "conditions": "T1AM-treated group vs control", "description": "as §1, §2, §3"}, "S6K": {"system": "S6K", "assay": "Immunoblotting analysis of p-S6K and S6K in C2C12 myotubes", "type": "cell-based", "description": "as §1, §6, §7"}, "C2C12 myotubes": {"system": "C2C12 myotubes", "assay": "Measurement of diameter (size) of C2C12 myotubes", "type": "cell-based", "conditions": "75 μM of T1AM for 6 hours", "description": "as §1\nTo verify the effect of T1AM on the size of C2C12 myotubes, the cells were fixed with 4% paraformaldehyde and photographed at 200× magnification on an Axiovert 200 optical microscope. For analysis, the cells were divided into 9 fractions in order to randomly select the cells. The diameter of each myotube was measured using Image J software (NIH, Frederick, Md., USA).\nTo determine whether T1AM induced muscular atrophy in C2C12 myotubes, cells were photographed under a phase contrast microscope (FIG. 1A) and the diameter was measured at 200× magnification (FIG. 1B)."}}, "data": [{"smiles": "NCCc1ccc(Oc2ccc(O)cc2)c(I)c1", "note": "[T1AM, 3-iodothyronamine]", "values": [{"measurement": "AMPK phosphorylation, increase compared to the control", "setting": "AMPK", "result": 2.7, "unit": "times"}, {"measurement": "expression ratio of p-AMPK/AMPK, higher than control", "setting": "AMPK", "result": 2.0, "unit": "times"}, {"measurement": "total expression levels of AMPK, between the two groups", "setting": "AMPK", "result": "similar"}, {"measurement": "expression ratio of p-FoxO1/FoxO1, lowered", "setting": "FoxO1", "result": 0.66, "unit": "times"}, {"measurement": "phosphorylation level of FoxO1 between the two groups", "setting": "FoxO1", "result": "similar"}, {"measurement": "total expression of FoxO1, higher than control", "setting": "FoxO1", "result": 2.5, "unit": "times"}, {"measurement": "chymotrypsin-like activity of proteasome, higher than control", "setting": "26S proteasome", "result": 1.5, "unit": "times"}, {"measurement": "difference in HSP60 expression between the two groups", "setting": "HSP60", "result": "not statistically significant"}, {"measurement": "expression ratio of p-FoxO3/FoxO3, lower than control", "setting": "FoxO3", "result": 0.39, "unit": "times"}, {"measurement": "p-FoxO3 level, lowered", "setting": "FoxO3", "result": 0.58, "unit": "times"}, {"measurement": "total expression of FoxO3 between T1AM-treated group and control", "setting": "FoxO3", "result": "not different"}, {"measurement": "expression level of HSP72, down-regulated compared to the control", "setting": "[1]", "result": 0.89, "unit": "times"}, {"measurement": "expression of MAFbx", "setting": "MAFbx", "result": "not affected"}, {"measurement": "expression of MuRF1, higher than control", "setting": "MuRF1", "result": 1.8, "unit": "times"}, {"measurement": "expression level of αB-crystallin, down-regulated compared to the control", "setting": "αB-crystallin", "result": 0.63, "unit": "times"}, {"measurement": "expression ratio of p-Akt1/Akt1, lower than control", "setting": "Akt1", "result": 0.45, "unit": "times"}, {"measurement": "non-phosphorylation level of Akt1 between the two groups", "setting": "Akt1", "result": "similar"}, {"measurement": "phosphorylation level of Akt1 compared to the control", "setting": "Akt1", "result": "significantly down-regulated"}, {"measurement": "p-S6K level", "setting": "S6K; T1AM treatment vs control", "result": "lowered"}, {"measurement": "expression ratio of p-S6K/S6K, lower than control", "setting": "S6K; T1AM-treated group vs control", "result": 0.53, "unit": "times"}, {"measurement": "size of myotube, decrease compared to vehicle control", "setting": "C2C12 myotubes", "result": 0.13, "unit": "times"}]}]}
